Assay results published in ChEMBL document CHEMBL4007384, “Synthesis and optimization of furano[3,2-d]pyrimidines as selective spleen tyrosine kinase (Syk) inhibitors” (Bioorg Med Chem Lett, 2016).
≈ marks a conversion by molar mass, not a printed value.

Tests used:
[1] = target: Tyrosine-protein kinase ABL1 (Homo sapiens, UniProt P00519); assay: Inhibition of ABL (unknown origin) after 60 mins by TR-FRET assay
[2] = target: Calcium/calmodulin-dependent protein kinase type 1D (Homo sapiens, UniProt Q8IU85); assay: Inhibition of human CAMK1D (unknown origin) after 60 mins by TR-FRET assay
[3] = target: Cyclin-dependent kinase 9 (Homo sapiens, UniProt P50750); assay: Inhibition of CDK9 (unknown origin) after 60 mins by TR-FRET assay
[4] = target: Dual specificity tyrosine-phosphorylation-regulated kinase 1B (Homo sapiens, UniProt Q9Y463); assay: Inhibition of DYRK1B (unknown origin) after 60 mins by TR-FRET assay
Focal adhesion kinase 1 = Focal adhesion kinase 1 (Homo sapiens, UniProt Q05397); assay: Inhibition of FAK (unknown origin) after 60 mins by TR-FRET assay
[5] = target: Glycogen synthase kinase-3 beta (Homo sapiens, UniProt P49841); assay: Inhibition of GSK3B (unknown origin) after 60 mins by TR-FRET assay
[6] = target: Leukocyte tyrosine kinase receptor (Homo sapiens, UniProt P29376); assay: Inhibition of LTK (unknown origin) after 60 mins by TR-FRET assay
[7] = target: Mitogen-activated protein kinase kinase kinase kinase 4 (Homo sapiens, UniProt O95819); assay: Inhibition of MAP4K4 (unknown origin) after 60 mins by TR-FRET assay
[8] = target: Dual specificity mitogen-activated protein kinase kinase 1 (Homo sapiens, UniProt Q02750); assay: Inhibition of MEK1 (unknown origin) after 60 mins by TR-FRET assay
[9] = target: Platelet-derived growth factor receptor alpha (Homo sapiens, UniProt P16234); assay: Inhibition of PDGFRA (unknown origin) after 60 mins by TR-FRET assay
[10] = target: Platelet-derived growth factor receptor beta (Homo sapiens, UniProt P09619); assay: Inhibition of PDGFRB (unknown origin) after 60 mins by TR-FRET assay
[11] = target: Rho-associated protein kinase 2 (Homo sapiens, UniProt O75116); assay: Inhibition of ROCK2 (unknown origin) after 60 mins by TR-FRET assay
[12] = target: T1, Dual specificity protein kinase TTK (Homo sapiens, UniProt P33981); assay: Inhibition of TTK (unknown origin) after 60 mins by TR-FRET assay
T1 sequence (P33981 whole entry): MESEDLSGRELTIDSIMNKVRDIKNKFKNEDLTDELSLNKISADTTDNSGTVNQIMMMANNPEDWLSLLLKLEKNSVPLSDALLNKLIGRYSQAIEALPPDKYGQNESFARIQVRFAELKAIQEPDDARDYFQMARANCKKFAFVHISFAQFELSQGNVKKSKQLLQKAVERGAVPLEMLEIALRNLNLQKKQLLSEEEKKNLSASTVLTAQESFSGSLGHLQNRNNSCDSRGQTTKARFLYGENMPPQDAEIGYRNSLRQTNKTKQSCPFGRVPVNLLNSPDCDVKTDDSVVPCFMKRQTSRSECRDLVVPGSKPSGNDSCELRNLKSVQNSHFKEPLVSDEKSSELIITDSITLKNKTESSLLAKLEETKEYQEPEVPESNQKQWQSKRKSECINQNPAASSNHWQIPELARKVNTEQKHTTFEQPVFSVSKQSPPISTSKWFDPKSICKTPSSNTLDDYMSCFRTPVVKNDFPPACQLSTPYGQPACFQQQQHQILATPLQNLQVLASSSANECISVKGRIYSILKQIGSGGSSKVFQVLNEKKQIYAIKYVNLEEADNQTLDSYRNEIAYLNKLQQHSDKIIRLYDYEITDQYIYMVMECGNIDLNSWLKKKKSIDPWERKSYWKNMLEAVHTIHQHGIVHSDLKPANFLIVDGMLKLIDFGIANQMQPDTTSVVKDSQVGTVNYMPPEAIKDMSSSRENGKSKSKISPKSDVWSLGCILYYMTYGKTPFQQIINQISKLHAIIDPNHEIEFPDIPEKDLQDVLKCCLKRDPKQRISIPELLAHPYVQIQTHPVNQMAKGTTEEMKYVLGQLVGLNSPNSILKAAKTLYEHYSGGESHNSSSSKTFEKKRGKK

[13] = target: T2, Tyrosine-protein kinase SYK (Homo sapiens, UniProt P43405)
Description: Inhibition of C-terminal His-tagged Syk catalytic domain (356 to 635 residues) (unknown origin) using biotin-TYR1 as substrate after 60 mins by TR-FRET assay

[14] = target: T2, Tyrosine-protein kinase SYK; remark: listed apart in the source
Description: Inhibition of Syk in human Ramos B cells assessed as decrease in intracellular calcium flux measured for 3.5 mins by calcium-5 dye based FLIPR assay

[15] = Solubility in pH 5 FeSSIF at 0.2 mg sonicated for 10 mins followed by incubation for 2 days by HPLC analysis; format: physicochemical
CYP3A4 [16] = target: T3, CYP3A4 (Homo sapiens, UniProt P08684); assay: Inhibition of CYP3A4 in human liver microsomes assessed as residual activity at 10 uM measured immediately relative to control; format: ADME; conditions: read-out: Activity
CYP3A4 [17] = target: T3, CYP3A4; assay: Inhibition of CYP3A4 in human liver microsomes assessed as residual activity at 50 uM measured immediately relative to control; format: ADME; conditions: read-out: Activity
CYP3A4 [18] = target: T3, CYP3A4; assay: Inhibition of CYP3A4 in human liver microsomes assessed as residual activity at 10 uM measured after 30 mins relative to control; format: ADME; conditions: read-out: Activity
CYP3A4 [19] = target: T3, CYP3A4; assay: Inhibition of CYP3A4 in human liver microsomes assessed as residual activity at 50 uM measured after 30 mins relative to control; format: ADME; conditions: read-out: Activity
[20] = target: Serine/threonine-protein kinase 16 (Homo sapiens, UniProt O75716); assay: Inhibition of STK16 (unknown origin) after 60 mins by TR-FRET assay
[21] = Unbound clearance in human microsomes; format: ADME, Microsome
[22] = target: Calcium/calmodulin-dependent protein kinase kinase 2 (Homo sapiens, UniProt Q96RR4); assay: Inhibition of CAMKK2 (unknown origin) after 60 mins by TR-FRET assay
[23] = target: Cyclin-dependent kinase 2 (Homo sapiens, UniProt P24941); assay: Inhibition of CDK2 (unknown origin) after 60 mins by TR-FRET assay
[24] = target: Epithelial discoidin domain-containing receptor 1 (Homo sapiens, UniProt Q08345); assay: Inhibition of DDR1 (unknown origin) after 60 mins by TR-FRET assay
[25] = target: Dual specificity mitogen-activated protein kinase kinase 3 (Homo sapiens, UniProt P46734); assay: Inhibition of MAP2K3 (unknown origin) after 60 mins by TR-FRET assay
[26] = target: Mitogen-activated protein kinase kinase kinase 10 (Homo sapiens, UniProt Q02779); assay: Inhibition of MAP3K10 (unknown origin) after 60 mins by TR-FRET assay
[27] = target: Serine/threonine-protein kinase pim-2 (Homo sapiens, UniProt Q9P1W9); assay: Inhibition of PIM2 (unknown origin) after 60 mins by TR-FRET assay
[28] = target: Protein kinase C zeta type (Homo sapiens, UniProt Q05513); assay: Inhibition of PKCzeta (unknown origin) after 60 mins by TR-FRET assay
[29] = target: cGMP-dependent protein kinase 1 (Homo sapiens, UniProt Q13976); assay: Inhibition of PKG1A (unknown origin) after 60 mins by TR-FRET assay

Rho-associated protein kinase 2, sequence (O75116 whole entry): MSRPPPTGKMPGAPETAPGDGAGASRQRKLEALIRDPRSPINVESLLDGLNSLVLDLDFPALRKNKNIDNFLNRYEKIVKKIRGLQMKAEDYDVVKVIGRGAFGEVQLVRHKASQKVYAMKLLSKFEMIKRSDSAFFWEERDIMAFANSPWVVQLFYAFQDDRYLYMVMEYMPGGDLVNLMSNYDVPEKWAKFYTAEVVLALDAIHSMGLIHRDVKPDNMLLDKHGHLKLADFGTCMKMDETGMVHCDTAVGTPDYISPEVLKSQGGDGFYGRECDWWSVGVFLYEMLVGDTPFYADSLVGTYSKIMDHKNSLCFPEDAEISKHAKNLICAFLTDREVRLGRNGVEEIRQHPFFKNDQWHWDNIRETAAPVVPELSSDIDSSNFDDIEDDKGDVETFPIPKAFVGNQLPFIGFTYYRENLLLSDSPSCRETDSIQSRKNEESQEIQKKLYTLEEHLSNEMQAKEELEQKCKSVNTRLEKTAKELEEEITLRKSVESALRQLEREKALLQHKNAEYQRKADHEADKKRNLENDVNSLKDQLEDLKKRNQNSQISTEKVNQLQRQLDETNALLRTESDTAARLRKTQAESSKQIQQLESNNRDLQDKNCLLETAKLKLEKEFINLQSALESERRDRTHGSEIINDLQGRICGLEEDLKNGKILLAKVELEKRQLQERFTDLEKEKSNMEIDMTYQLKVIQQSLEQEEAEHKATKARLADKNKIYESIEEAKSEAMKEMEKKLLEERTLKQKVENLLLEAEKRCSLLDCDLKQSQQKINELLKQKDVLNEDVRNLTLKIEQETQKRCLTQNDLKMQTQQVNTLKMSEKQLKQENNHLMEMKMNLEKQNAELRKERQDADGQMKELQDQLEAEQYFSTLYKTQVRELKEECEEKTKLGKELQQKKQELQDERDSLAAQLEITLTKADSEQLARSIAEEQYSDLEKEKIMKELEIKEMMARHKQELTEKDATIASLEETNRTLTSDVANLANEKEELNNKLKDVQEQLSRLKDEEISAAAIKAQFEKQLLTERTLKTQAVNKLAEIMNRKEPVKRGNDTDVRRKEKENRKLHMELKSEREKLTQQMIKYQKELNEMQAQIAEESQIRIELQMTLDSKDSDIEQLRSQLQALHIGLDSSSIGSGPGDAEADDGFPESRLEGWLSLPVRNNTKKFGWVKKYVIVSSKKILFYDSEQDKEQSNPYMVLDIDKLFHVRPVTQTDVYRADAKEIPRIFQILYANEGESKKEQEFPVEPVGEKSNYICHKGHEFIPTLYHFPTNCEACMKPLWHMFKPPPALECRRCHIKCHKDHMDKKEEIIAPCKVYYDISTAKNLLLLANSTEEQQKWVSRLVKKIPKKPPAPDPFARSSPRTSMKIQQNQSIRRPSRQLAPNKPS
Mitogen-activated protein kinase kinase kinase kinase 4, sequence (O95819 whole entry): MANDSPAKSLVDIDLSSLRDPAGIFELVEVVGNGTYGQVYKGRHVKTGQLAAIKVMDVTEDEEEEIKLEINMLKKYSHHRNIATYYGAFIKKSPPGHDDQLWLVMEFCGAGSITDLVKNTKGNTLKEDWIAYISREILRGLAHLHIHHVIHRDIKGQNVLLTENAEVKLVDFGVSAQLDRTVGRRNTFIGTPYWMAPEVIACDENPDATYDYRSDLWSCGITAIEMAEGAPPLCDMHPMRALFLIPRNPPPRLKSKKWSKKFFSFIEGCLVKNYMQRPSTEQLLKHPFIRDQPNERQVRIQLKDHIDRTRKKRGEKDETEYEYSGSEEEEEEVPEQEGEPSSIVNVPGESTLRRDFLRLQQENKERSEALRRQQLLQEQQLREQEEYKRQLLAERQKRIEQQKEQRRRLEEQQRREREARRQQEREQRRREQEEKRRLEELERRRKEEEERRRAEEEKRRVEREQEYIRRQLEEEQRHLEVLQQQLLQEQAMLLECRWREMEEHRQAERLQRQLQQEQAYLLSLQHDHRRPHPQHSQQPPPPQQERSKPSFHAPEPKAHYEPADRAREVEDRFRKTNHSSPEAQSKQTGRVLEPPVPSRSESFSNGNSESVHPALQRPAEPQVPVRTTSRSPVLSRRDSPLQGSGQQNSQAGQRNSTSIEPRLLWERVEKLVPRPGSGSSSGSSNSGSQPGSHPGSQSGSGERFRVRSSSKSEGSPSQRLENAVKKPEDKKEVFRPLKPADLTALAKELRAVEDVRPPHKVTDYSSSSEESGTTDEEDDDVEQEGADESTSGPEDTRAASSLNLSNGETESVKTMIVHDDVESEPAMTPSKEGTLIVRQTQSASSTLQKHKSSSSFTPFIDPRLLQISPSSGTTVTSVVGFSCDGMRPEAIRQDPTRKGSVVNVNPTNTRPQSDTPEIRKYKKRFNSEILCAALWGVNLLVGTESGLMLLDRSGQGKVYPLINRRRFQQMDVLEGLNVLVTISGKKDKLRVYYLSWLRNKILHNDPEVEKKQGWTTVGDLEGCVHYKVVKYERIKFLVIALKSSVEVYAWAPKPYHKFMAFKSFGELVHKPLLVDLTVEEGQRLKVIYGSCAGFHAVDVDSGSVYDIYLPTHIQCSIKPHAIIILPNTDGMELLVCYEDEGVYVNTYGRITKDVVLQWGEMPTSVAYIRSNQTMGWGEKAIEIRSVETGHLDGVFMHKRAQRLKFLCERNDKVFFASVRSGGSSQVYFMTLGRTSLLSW
Platelet-derived growth factor receptor beta, sequence (P09619 whole entry): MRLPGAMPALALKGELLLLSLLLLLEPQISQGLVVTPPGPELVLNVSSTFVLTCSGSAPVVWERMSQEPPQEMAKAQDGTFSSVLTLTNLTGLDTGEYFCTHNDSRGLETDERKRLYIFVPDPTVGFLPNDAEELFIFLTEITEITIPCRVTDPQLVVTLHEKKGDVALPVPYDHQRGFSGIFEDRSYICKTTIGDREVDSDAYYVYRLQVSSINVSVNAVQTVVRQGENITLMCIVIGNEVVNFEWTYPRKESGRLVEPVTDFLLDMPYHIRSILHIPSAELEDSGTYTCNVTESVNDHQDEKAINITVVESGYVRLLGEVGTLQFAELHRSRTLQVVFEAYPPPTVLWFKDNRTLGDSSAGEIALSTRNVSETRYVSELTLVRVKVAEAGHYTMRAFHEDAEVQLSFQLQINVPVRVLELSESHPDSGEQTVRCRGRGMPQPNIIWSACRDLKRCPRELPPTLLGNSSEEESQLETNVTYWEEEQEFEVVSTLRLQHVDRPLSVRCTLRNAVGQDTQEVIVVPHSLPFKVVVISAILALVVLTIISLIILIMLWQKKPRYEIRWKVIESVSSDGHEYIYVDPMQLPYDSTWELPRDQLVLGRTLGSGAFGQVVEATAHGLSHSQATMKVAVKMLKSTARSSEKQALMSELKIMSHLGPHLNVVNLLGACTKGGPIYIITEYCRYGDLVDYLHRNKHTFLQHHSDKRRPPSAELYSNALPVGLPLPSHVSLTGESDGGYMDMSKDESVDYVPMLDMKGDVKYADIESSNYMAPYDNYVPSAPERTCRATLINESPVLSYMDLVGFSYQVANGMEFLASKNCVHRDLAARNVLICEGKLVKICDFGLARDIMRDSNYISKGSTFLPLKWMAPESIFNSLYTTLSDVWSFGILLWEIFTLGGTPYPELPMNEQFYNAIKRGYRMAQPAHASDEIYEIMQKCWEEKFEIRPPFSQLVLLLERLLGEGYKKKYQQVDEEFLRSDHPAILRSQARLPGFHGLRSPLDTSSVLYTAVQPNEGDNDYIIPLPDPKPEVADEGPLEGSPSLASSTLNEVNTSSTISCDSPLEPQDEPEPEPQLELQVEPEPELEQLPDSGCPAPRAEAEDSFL
Cyclin-dependent kinase 9, sequence (P50750 whole entry): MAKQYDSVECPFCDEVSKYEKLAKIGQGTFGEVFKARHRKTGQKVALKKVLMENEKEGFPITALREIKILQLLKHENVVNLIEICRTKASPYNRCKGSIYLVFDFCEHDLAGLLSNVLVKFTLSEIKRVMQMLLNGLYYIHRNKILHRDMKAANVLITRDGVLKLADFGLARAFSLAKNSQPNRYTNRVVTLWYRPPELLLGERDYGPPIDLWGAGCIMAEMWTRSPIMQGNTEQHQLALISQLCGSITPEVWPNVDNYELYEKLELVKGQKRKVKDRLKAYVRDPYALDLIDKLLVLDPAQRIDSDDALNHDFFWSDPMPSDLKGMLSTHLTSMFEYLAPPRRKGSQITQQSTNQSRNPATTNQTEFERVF
Dual specificity mitogen-activated protein kinase kinase 1, sequence (Q02750 whole entry): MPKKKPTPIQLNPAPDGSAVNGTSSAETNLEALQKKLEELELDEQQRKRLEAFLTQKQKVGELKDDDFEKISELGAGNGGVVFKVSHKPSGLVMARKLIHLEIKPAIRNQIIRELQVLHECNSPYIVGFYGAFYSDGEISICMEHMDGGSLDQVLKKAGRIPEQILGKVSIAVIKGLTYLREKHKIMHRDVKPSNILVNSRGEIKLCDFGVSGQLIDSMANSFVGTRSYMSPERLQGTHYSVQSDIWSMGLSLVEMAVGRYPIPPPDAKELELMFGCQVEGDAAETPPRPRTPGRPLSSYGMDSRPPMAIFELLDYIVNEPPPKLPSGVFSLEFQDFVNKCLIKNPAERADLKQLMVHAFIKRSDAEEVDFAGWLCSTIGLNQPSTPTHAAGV
Calcium/calmodulin-dependent protein kinase type 1D, sequence (Q8IU85 whole entry): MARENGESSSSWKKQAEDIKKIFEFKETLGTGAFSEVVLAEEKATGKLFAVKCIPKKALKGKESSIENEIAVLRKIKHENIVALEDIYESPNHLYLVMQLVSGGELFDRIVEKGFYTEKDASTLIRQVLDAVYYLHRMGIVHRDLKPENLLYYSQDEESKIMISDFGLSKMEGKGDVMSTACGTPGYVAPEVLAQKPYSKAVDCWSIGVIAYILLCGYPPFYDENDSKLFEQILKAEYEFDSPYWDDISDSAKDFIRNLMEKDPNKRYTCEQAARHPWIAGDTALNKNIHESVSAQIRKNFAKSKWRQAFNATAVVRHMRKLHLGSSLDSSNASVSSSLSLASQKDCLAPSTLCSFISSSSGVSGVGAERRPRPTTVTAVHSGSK

FC(F)(F)CNc1nc(Nc2ccc(N3CCOCC3)c(Cl)c2)nc2ccoc12
IC50 [1]: 2.75 µM | IC50 [2]: > 10 µM | IC50 [3]: > 10 µM | IC50 [4]: > 10 µM | IC50 (Focal adhesion kinase 1): > 10 µM | IC50 [5]: > 10 µM | IC50 [6]: > 10 µM | IC50 [7]: > 10 µM | IC50 [8]: > 10 µM | IC50 [9]: > 10 µM | IC50 [10]: > 10 µM | IC50 [11]: > 10 µM | IC50 [12]: 1.84 µM | IC50 [13]: 0.061 µM | EC50 [14]: 0.117 µM

FC(F)(F)CNc1nc(Nc2ccc3cn[nH]c3c2)nc2ccoc12
IC50 [2]: > 10 µM | IC50 [3]: > 10 µM | IC50 (Focal adhesion kinase 1): > 10 µM | IC50 [5]: > 10 µM | IC50 [6]: 7.4 µM | IC50 [7]: > 10 µM | IC50 [8]: > 10 µM | IC50 [9]: > 10 µM | IC50 [10]: > 10 µM | IC50 [13]: 0.081 µM | EC50 [14]: 0.235 µM

Cc1n[nH]c2cc(Nc3nc(NC4CC4)c4occc4n3)ccc12
solubility at 48 h [15]: 99 µM (≈ 31.7 µg/mL) | activity at 0 min, 10 µM (CYP3A4 [16]): 94% | activity at 0 min, 50 µM (CYP3A4 [17]): 87% | activity at 0.5 h, 10 µM (CYP3A4 [18]): 51% | activity at 0.5 h, 50 µM (CYP3A4 [19]): 28% | IC50 [2]: > 10 µM | IC50 [3]: > 10 µM | IC50 [4]: > 10 µM | IC50 [5]: > 10 µM | IC50 [6]: 6.01 µM | IC50 [7]: 9.43 µM | IC50 [8]: > 10 µM | IC50 [9]: > 10 µM | IC50 [10]: > 10 µM | IC50 [11]: > 10 µM | IC50 [20]: 4.5 µM | IC50 [12]: 2.16 µM

CC1(C)OCC(=O)Nc2cc(Nc3nc(NCC(F)(F)F)c4occc4n3)ccc21
CL free [21]: 170 mL/min/kg | solubility at 48 h [15]: 4.96 µM (≈ 2.09 µg/mL) | activity at 0 min, 10 µM (CYP3A4 [16]): 91% | activity at 0 min, 50 µM (CYP3A4 [17]): 92% | activity at 0.5 h, 10 µM (CYP3A4 [18]): 81% | activity at 0.5 h, 50 µM (CYP3A4 [19]): 75% | IC50 [1]: 0.408 µM | IC50 [2]: > 10 µM | IC50 [22]: 1.91 µM | IC50 [23]: > 10 µM | IC50 [3]: > 10 µM | IC50 [24]: > 10 µM | IC50 [4]: > 10 µM | IC50 (Focal adhesion kinase 1): 5.5 µM | IC50 [5]: > 10 µM | IC50 [6]: 5.11 µM | IC50 [25]: > 10 µM | IC50 [26]: 4.55 µM | IC50 [7]: > 10 µM | IC50 [8]: > 10 µM | IC50 [9]: 5.59 µM | IC50 [10]: 5.19 µM | IC50 [27]: > 10 µM | IC50 [28]: > 10 µM | IC50 [29]: > 10 µM | IC50 [11]: 6.32 µM | IC50 [20]: 0.885 µM | EC50 [14]: 0.017 µM
